Measured values: US20090253209A1, “Method of obtaining BZM purity, quantity of [123I]IBZM labeled ligand and quantity of BZM free ligand” (ATOMIC ENERGY COUNCIL - INSTITUTE OF NUCLEAR ENERGY RESEARCH, priority 2008, published 2009)

Experiments:
[1] = solution stability test of BZM solution by HPLC; format: physicochemical; conditions: BZM dissolved in DMSO, room temperature, three days
From the text: (7) For the solution stability test, a sum of BZM solution is put under a room temperature to be processed with HPLC analysis for three days, as shown in FIG. 12. Consequently, the difference of BZM retention time is 0.64%; the resolution difference is 5.81%; the purity difference is −0.37%; the difference of a linear least square regression slope is −3.18%; and linear correlation coefficients are all greater than 0.9997.

D2/D3 receptor (D2/D3R) = conditions: in rats; compared with [^123I] IBZM; cited from earlier work

**Q.** Which results are given for `CCN1CCC[C@H]1CNC(=O)c1c(O)cccc1OC` [BZM, (S)-(-)-2-hydroxy-6-methoxy-N-[(1-ethyl-2-pyrrolidinyl)methyl]benzamide]?
**A.** solution stability (in words) [1]: good stability; purity difference (solution stability) ([1]; HPLC analysis): −0.37%; bonding to D2/D3 receptor relative to [^123I] IBZM (D2/D3 receptor (D2/D3R)): far small bonding to D2/D3 receptor (D2/D3R) than [^123I] IBZM
